Patent US12673947B2 (Cytosinlab Therapeutics Co., Ltd., priority 2020, dated 2026)

What was measured:
MV4;11 cells = assay: MV4;11 in vitro inhibition of proliferation assay (CellTiter-Glo, 72 hours); format: cell-based; conditions: Homo sapiens, MV4-11, 72 h, IC50 class, read-out: Inhibitory activity of cell proliferation MV4;11
Summary of the method: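 IC50 came from four-parameter fitting of inhibition rates, based on CellTiter-Glo luminescence after 72 hours at 37° C. Each well held 2000 MV4;11 cells grown in IMDM with 10% serum. Compounds formed a nine-point, threefold DMSO series starting at 10 uM, tested in triplicate at 0.3% final DMSO.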

FLT3 = molecular target: T1, FLT3 (Homo sapiens, UniProt P36888); assay: FLT3 kinase in vitro inhibitory activity experiment (Caliper mobility shift, conversion rate); format: biochemical; conditions: IC50 class, read-out: Enzyme activity FLT3
T1 construct: purchased Carna 08-145
T1 sequence (P36888 27-993): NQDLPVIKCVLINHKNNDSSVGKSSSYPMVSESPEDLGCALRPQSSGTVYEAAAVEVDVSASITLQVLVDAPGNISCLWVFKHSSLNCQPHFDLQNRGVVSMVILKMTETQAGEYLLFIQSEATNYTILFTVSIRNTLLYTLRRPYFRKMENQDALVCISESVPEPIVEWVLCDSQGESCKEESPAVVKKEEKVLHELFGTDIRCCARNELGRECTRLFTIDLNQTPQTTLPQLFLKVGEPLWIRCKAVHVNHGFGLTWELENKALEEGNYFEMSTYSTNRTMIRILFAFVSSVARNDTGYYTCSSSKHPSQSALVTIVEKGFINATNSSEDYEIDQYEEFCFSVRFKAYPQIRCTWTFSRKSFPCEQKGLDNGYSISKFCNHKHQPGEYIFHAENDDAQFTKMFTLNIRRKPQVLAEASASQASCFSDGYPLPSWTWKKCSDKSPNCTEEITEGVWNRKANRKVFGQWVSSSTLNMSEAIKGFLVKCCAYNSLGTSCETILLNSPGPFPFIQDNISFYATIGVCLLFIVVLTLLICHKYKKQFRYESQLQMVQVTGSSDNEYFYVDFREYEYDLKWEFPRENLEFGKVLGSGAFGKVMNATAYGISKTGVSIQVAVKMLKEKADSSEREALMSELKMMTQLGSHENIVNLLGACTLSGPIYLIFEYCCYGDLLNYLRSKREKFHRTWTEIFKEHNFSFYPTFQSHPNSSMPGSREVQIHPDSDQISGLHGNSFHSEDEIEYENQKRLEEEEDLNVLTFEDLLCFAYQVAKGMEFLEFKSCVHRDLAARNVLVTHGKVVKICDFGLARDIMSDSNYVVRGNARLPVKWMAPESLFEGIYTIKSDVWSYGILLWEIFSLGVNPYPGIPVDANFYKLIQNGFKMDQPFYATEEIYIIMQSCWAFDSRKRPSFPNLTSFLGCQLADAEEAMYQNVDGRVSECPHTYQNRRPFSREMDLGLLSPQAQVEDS
Summary of the method: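 Tested in single wells as ten 3-fold dilutions of a 1 μM initial stock. Compound and FLT3 stood 10 min at room temperature; ATP with Kinase substrate 2 was then added for 30 min at room temperature and the reaction stopped. Conversion was measured by Caliper mobility shift, and inhibition was normalised to control-well conversion.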

| SMILES | IC50 (MV4;11 cells) [nM] | IC50 (FLT3) [nM] |
| --- | --- | --- |
| CCc1nc2c(N)ncc(-c3cnn(-c4ccc(Cl)c(C)c4)c3)c2nc1N[C@@H]1CC[C@H](O)C1 [Compound 279] | 10 to 100 | 10 to 100 |
| CCc1nc2c(N)ncc(-c3cnn(-c4ccnc(C)n4)c3)c2nc1NC1CCOCC1 [Compound 280] | ≤ 10 | ≤ 10 |
| CCc1nc2c(N)ncc(-c3cnn(-c4ccnc(C)n4)c3)c2nc1N[C@H]1CCOC1 [Compound 281] | 10 to 100 | 10 to 100 |
| CCc1nc2c(N)ncc(-c3cnn(C4CCS(=O)(=O)CC4)c3)c2nc1N[C@@H]1CC[C@H](O)C1 [Compound 282] | 10 to 100 | ≤ 10 |
| CCc1nc2c(N)ncc(-c3cnn(C4CCc5cc(F)cc(F)c5CC4)c3)c2nc1N[C@@H]1CC[C@H](O)C1 (some centres unmarked) [Compound 283] | 10 to 100 | ≤ 10 |
| CCc1nc2c(N)ncc(-c3ccc(N4CC5CCC(C4)N5C)c(OC)c3)c2nc1N[C@@H]1CC[C@H](O)C1 [Compound 286, (1S, 3R)-3-((5-amino-3-ethyl-8-(3-methoxy-4-(8-methyl-3,8-diazabicyclo[3.2.1]octyl-3-yl)phenyl)pyridino[3,4-b]pyrazine-2-yl)amino)cyclopentan-1-ol] | ≤ 10 | ≤ 10 |
| CCc1nc2c(N)ncc(-c3ccc(N4CCC(N5CCN(C)CC5)C(C)C4)c(OC)c3)c2nc1NC1CCOCC1 (centres unmarked) [Compound 287, 3-ethyl-8-(3-methoxy-4-(3-methyl-4-(4-methylpiperazine-1-yl)piperidine-1-yl)phenyl)-N2-(tetrahydro-2H-pyran-4-yl)pyridino[3,4-b]pyrazine-2,5-diamine] | 10 to 100 | ≤ 10 |
| CCc1nc2c(N)ncc(-c3ccc(-c4ccnc(C)n4)c(OC)c3)c2nc1N[C@@H]1CC[C@H](O)C1 [Compound 288, (1S,3R)-3-((5-amino-3-ethyl-8-(3-methoxy-4-(2-methylpyrimidine-4-yl)phenyl)pyrido[3,4-b]pyrazine-2-yl)amino)cyclopentan-1-ol] | 10 to 100 | ≤ 10 |
| CCc1nc2c(N)ncc(-c3cnn(-c4ccc(C5CCN(C)CC5)cc4)c3)c2nc1N[C@@H]1CC[C@H](O)C1 [Compound 290] | ≤ 10 | ≤ 10 |
| CCc1nc2c(N)ncc(-c3cnn(-c4ccc(Cl)cc4)c3)c2nc1N[C@@H]1CC[C@H](O)C1 [Compound 291] | 10 to 100 | ≤ 10 |
| CCc1nc2c(N)ncc(-c3cnn(-c4ccc(OC5CCN(C)CC5)cc4)c3)c2nc1N[C@@H]1CC[C@H](O)C1 [Compound 292, (1S, 3R)-3-((5-amino-3-ethyl-8-(1-(4-((1-methylpiperidin-4-yl)oxy)phenyl)-1H-pyrazol-4-yl)pyridino[3,4-b]pyrazin-2-yl)amino)cyclopentan-1-ol] | 100 to 500 | > 500 |
| CCc1nc2c(N)ncc(-c3ccc(N4CCC(N5CC6CCC(C5)N6C)CC4)c(OC)c3)c2nc1NC1CCOCC1 [Compound 293, 3-ethyl-8-(3-methoxy-4-(4-(8-methyl-3,8-diazabicyclo[3.2.1]octan-3-yl)piperidin-1-yl)phenyl)-N2-(tetrahydro-2H-pyran-4-yl)pyridino [3,4-b]pyrazin-2,5-diamine] | 10 to 100 | ≤ 10 |
| CCc1nc2c(N)ncc(-c3cnn(-c4ncccn4)c3)c2nc1N[C@@H]1CC[C@H](O)C1 [Compound 294] | ≤ 10 | ≤ 10 |
| CCc1nc2c(N)ncc(-c3cnn(-c4cncnc4)c3)c2nc1N[C@@H]1CC[C@H](O)C1 [Compound 295] | ≤ 10 | ≤ 10 |
| CCc1nc2c(N)ncc(-c3cnn(-c4ccn(C)c(=O)c4)c3)c2nc1N[C@@H]1CC[C@H](O)C1 [Compound 296] | ≤ 10 | ≤ 10 |
| CCc1nc2c(N)ncc(-c3cnn(-c4cc(C)n(C)c(=O)c4)c3)c2nc1N[C@@H]1CC[C@H](O)C1 [Compound 299] | 10 to 100 | ≤ 10 |
| CCc1nc2c(N)ncc(-c3cnn(-c4ccc(=O)n(C)c4)c3)c2nc1N[C@@H]1CC[C@H](O)C1 [Compound 301] | ≤ 10 | ≤ 10 |
| CCc1nc2c(N)ncc(-c3cnn(-c4cccnc4)c3)c2nc1N[C@@H]1CC[C@H](O)C1 [Compound 302] | ≤ 10 | ≤ 10 |
| CCc1nc2c(N)ncc(-c3cnn(-c4ccc(C)cc4)c3)c2nc1N[C@@H]1CC[C@H](O)C1 [Compound 303] | 10 to 100 | ≤ 10 |

| SMILES | IC50 (MV4;11 cells) [nM] | IC50 (FLT3) [nM] |
| --- | --- | --- |
| CCc1nc2c(N)ncc(-c3cnn(-c4cc(C)ncn4)c3)c2nc1N[C@@H]1CC[C@H](O)C1 [Compound 304] | ≤ 10 | ≤ 10 |
| CCc1nc2c(N)ncc(-c3cnn(-c4ccnnc4)c3)c2nc1N[C@@H]1CC[C@H](O)C1 [Compound 306] | ≤ 10 | ≤ 10 |
| CCc1nc2c(N)ncc(-c3cnn(-c4ccnc(C(C)(C)O)c4)c3)c2nc1N[C@@H]1CC[C@H](O)C1 [Compound 308] | ≤ 10 | ≤ 10 |
| CCc1nc2c(N)ncc(-c3cnn(-c4ccnc(OC)c4)c3)c2nc1N[C@@H]1CC[C@H](O)C1 [Compound 309] | ≤ 10 | ≤ 10 |
| CCc1nc2c(N)ncc(-c3cnn(-c4ccnc(N5CCCC5)c4)c3)c2nc1N[C@@H]1CC[C@H](O)C1 [Compound 310] | 10 to 100 | ≤ 10 |
| CCc1nc2c(N)ncc(-c3cnn(-c4ccc(CNC)cc4)c3)c2nc1N[C@@H]1CC[C@H](O)C1 [Compound 311] | ≤ 10 | ≤ 10 |
| CCc1nc2c(N)ncc(-c3ccc(-c4cnn(C5CCN(C)CC5)c4)c(OC)c3)c2nc1N[C@@H]1CC[C@H](O)C1 [Compound 312, (1S, 3R)-3-((5-amino-3-ethyl-8-(3-methoxy-4-(1-(1-methylpiperidin-4-yl)-1H-pyrazol-4-yl)phenyl)pyridino [3,4-b]pyrazin-2-yl)amino) cyclopentan-1-ol] | 10 to 100 | ≤ 10 |
| CCc1nc2c(N)ncc(-c3ccc(-c4ccc(C5CCN(C)CC5)cc4)c(OC)c3)c2nc1N[C@@H]1CC[C@H](O)C1 [Compound 313] | 10 to 100 | ≤ 10 |
| CCc1nc2c(N)ncc(-c3ccc(N4CCC(N5CCCN(C)CC5)CC4)c(OC)c3)c2nc1NC1CCOCC1 [Compound 314] | 10 to 100 | 10 to 100 |
| CCc1nc2c(N)ncc(-c3ccc(N4CCC(N5CCN(CC)CC5)CC4)c(OC)c3)c2nc1NC1CCOCC1 [Compound 315, 3-ethyl-8-(4-(4-(4-ethylpiperazine-1-yl)piperidine-1-yl)-3-methoxyphenyl)-N2-(tetrahydro-2H-pyran-4-yl)pyridino[3,4-b]pyrazine-2,5-diamine] | 10 to 100 | ≤ 10 |
| CCc1nc2c(N)ncc(-c3cnn(-c4ccnc(CO)c4)c3)c2nc1N[C@@H]1CC[C@H](O)C1 [Compound 318] | ≤ 10 | ≤ 10 |
| CCc1nc2c(N)ncc(-c3ccc(N4CCC(N5CC6CCC(C5)N6)CC4)c(OC)c3)c2nc1NC1CCOCC1 [Compound 319, 8-(4-(4-(3,8-diazabicyclo[3.2.1]octane-3-yl)piperidin-1-yl)-3-methoxyphenyl)-3-ethyl-N2-(tetrahydro-2H-pyran-pyridin-4-yl)pyridino [3,4-b]pyrazine-2,5-diamine] | 10 to 100 | ≤ 10 |
| CCc1nc2c(N)ncc(-c3ccc(N4CCC(N5CCN(CC(F)F)CC5)CC4)c(OC)c3)c2nc1NC1CCOCC1 [Compound 321] | 10 to 100 | ≤ 10 |
| CCc1nc2c(N)ncc(-c3ccc(N4CCC(N5CCN(C)CC5)CC4C)c(OC)c3)c2nc1NC1CCOCC1 (centres unmarked) [Compound 322] | 10 to 100 | ≤ 10 |
| CCc1nc2c(N)ncc(-c3ccc(N4CCC(N5CC[C@@H](NC)C5)CC4)c(OC)c3)c2nc1NC1CCOCC1 [Compound 323] | 10 to 100 | ≤ 10 |
| CCc1nc2c(N)ncc(-c3ccc(N4CCC(N5CC[C@H](NC)C5)CC4)c(OC)c3)c2nc1NC1CCOCC1 [Compound 324] | 10 to 100 | ≤ 10 |
| CCc1nc2c(N)ncc(-c3ccc(N4CCC(N5CCN(CC)CC5)CC4)c(OC)c3)c2nc1N[C@H]1CCOC1 [Compound 325] | 10 to 100 | ≤ 10 |
| CCc1nc2c(N)ncc(-c3ccc(N4CCC(N5CCN(CCC#N)CC5)CC4)c(OC)c3)c2nc1NC1CCOCC1 [Compound 326] | 10 to 100 | 10 to 100 |
